According to patent publication US9096615B2, “Bridged bicyclic amino thiazine dioxide compounds as inhibitors of beta-secretase and methods of use thereof” (AMGEN INC., priority 2013, dated 2015):
Where two headings read alike, the source gives them in different places.

Experiments:
BACE1 = BACE1 (Homo sapiens, UniProt P56817); test: In vitro enzymatic BACE FRET assay; assay type: biochemical
Outline: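 Fluorescence (excitation 488 nm, […]) from cleavage of quenched peptide substrate (50 nM), reaction run 1 h after 1 h enzyme–inhibitor pre-incubation, then neutralised with Tris. Conditions: 0.2 nM enzyme, pH 4.2 acetate 0.05 M, 10% DMSO final, 100 uM genapol.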

Cathepsin D (Cat D) = target: T1, Cathepsin D (Cat D) (Homo sapiens, UniProt P07339); test: In vitro enzymatic Cathepsin D (Cat D) FRET assay; assay type: biochemical
T1 construct: made in house; host or cells: CHO cells
Outline: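 Fluorescence (500 nm excitation, 580 nm emission) was measured after Tris quench of a 1 h cleavage of 20 nM quenched peptide substrate. Before that, 9 nM CHO-expressed human Cat D sat with compound for 1 h at pH 3.5 (0.05 M citrate, 5 mM CHAPS, 10% DMSO final).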

[1] = test system: Aβ40 in conditioned medium of cells stably expressing Amyloid Precursor Protein (APP); test: In vitro BACE cell-based assay (HEK cell assay, Aβ40 sandwich ELISA); conditions: Homo sapiens, HEK293
Outline: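 IC50 was derived from percent-of-control Aβ40 against concentration, with Aβ40 quantified by time-resolved fluorescence ELISA (pAb40/6E10-biotin, 4 °C incubations). Supernatants were sampled after 24 h of compound exposure (10 points, starting 100 or 10 μM, 0.1% DMSO) of cells stably expressing APP.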

[2] = average IC50, read-out: BACE1 Enzyme assay IC50
[3] = average IC50, first procedure, read-out: CatD IC50
[4] = average IC50, read-out: BACE1 cell assay IC50
[5] = read-out: BACE1 FRET assay IC50
[6] = Aβ40, 24 h incubation, read-out: HEK cell assay IC50

BACE1, sequence (P56817 46-501, species assumed): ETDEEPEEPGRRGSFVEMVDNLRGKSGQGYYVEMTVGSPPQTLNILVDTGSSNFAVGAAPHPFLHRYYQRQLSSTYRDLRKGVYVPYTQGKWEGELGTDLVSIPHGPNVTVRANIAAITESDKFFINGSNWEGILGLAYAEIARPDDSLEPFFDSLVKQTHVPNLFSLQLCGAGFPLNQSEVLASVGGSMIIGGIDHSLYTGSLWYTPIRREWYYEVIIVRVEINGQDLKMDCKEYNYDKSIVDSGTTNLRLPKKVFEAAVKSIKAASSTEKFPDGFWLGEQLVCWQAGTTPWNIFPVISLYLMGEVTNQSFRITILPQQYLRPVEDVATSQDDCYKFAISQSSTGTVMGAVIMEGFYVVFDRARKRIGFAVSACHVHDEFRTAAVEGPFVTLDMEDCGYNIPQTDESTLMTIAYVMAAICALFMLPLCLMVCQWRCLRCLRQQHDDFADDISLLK
T1 sequence (P07339 65-412, species assumed): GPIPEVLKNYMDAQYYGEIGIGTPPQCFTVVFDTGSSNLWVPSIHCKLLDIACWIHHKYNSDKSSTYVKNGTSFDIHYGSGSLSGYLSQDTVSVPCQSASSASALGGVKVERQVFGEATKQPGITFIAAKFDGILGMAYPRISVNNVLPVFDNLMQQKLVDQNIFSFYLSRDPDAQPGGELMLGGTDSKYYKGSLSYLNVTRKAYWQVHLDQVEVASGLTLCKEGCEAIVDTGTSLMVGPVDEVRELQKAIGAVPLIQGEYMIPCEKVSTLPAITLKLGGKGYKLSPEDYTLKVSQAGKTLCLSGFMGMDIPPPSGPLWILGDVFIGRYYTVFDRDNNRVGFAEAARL

Compound	IC50 (BACE1; [2]) [µM]	IC50 (Cathepsin D (Cat D); [3]) [µM]	IC50 [1, 4] [µM]	IC50 (BACE1; [5]) [µM]	IC50 (Cathepsin D (Cat D); read-out: CatD IC50) [µM]	IC50 [1, 6] [µM]	IC50 (Cathepsin D (Cat D); read-out: Cat D IC50 value) [µM]
C[C@]12CC[C@H]([C@@](C)(c3cc(Nc4nccc5nc(C(F)(F)F)cnc45)ccc3F)N=C1N)S2(=O)=O [Example 87, N-(3-((1R,2R,5S)-4-amino-2,5-dimethyl-8,8-dioxido-8-thia-3-azabicyclo[3.2.1]oct-3-en-2-yl)-4-fluorophenyl)-2-(trifluoromethyl)pyrido[3,4-b]pyrazin-5-amine]	0.084	> 44.4	0.313				
CC#CCOc1cnc2c(Nc3ccc(F)c([C@@]4(C)N=C(N)[C@@]5(C)CC[C@@H]4S5(=O)=O)c3)ncc(F)c2c1 [Example 134, N-(3-((1S,2R,5R)-4-amino-2,5-dimethyl-8,8-dioxido-8-thia-3-azabicyclo[3.2.1]oct-3-en-2-yl)-4-fluorophenyl)-3-(2-butyn-1-yloxy)-5-fluoro-1,7-naphthyridin-8-amine]	0.001	1610	0.004				
C[C@]12CC[C@H]([C@@](C)(c3cc(Nc4ncc(F)c5cc(Cl)cnc45)ccc3F)N=C1N)S2(=O)=O [Example 30, N-(3-((1R,2R,5S)-4-amino-2,5-dimethyl-8,8-dioxido-8-thia-3-azabicyclo[3.2.1]oct-3-en-2-yl)-4-fluorophenyl)-3-chloro-5-fluoro-1,7-naphthyridin-8-amine]				0.033	4500	0.163	
Cc1cc(C(F)(F)F)cnc1C(=O)Nc1ccc(F)c([C@@]2(C)N=C(N)[C@]3(CF)CC[C@H]2S3(=O)=O)c1 [Example 93, N-(3-((1R,2R,5S)-4-amino-5-(fluoromethyl)-2-methyl-8,8-dioxido-8-thia-3-azabicyclo[3.2.1]oct-3-en-2-yl)-4-fluorophenyl)-3-methyl-5-(trifluoromethyl)-2-pyridinecarboxamide]	0.04	1590	0.035				
C[C@]12CC[C@H]([C@@](C)(c3cc(NC(=O)c4ccc(C#N)cc4F)ccc3F)N=C1N)S2(=O)=O [Example 128, N-(3-((1R,2R,5S)-4-amino-2,5-dimethyl-8,8-dioxido-8-thia-3-azabicyclo[3.2.1]oct-3-en-2-yl)-4-fluorophenyl)-4-cyano-2-fluorobenzamide]	0.123	> 400	0.037				
C[C@]12CC[C@](C)([C@@](C)(c3cc(Nc4ncc(F)c5cc(Cl)cnc45)ccc3F)N=C1N)S2(=O)=O [Example 51, N-(3-((1R,2R,5S)-4-amino-1,2,5-trimethyl-8,8-dioxido-8-thia-3-azabicyclo[3.2.1]oct-3-en-2-yl)-4-fluorophenyl)-3-chloro-5-fluoro-1,7-naphthyridin-8-amine]	0.011	21.5	0.381				
Cc1cc(Cl)cnc1C(=O)Nc1ccc(F)c([C@@]2(C)N=C(N)[C@@]3(C)CCC[C@]2(C)S3(=O)=O)c1 [Example 11, N-(3-((1S,2R,5R)-4-Amino-1,2,5-trimethyl-9,9-dioxido-9-thia-3-azabicyclo[3.3.1]non-3-en-2-yl)-4-fluorophenyl)-5-chloro-3-methylpicolinamide]				0.006	51.5	0.031	
Cc1cc(C(F)(F)F)cnc1C(=O)Nc1ccc(F)c([C@@]2(C)N=C(N)[C@@]3(C)CC[C@]2(C)S3(=O)=O)c1 [Example 48, N-(3-((1S,2R,5R)-4-amino-1,2,5-trimethyl-8,8-dioxido-8-thia-3-azabicyclo[3.2.1]oct-3-en-2-yl)-4-fluorophenyl)-3-methyl-5-(trifluoromethyl)-2-pyridinecarboxamide]	0.011	54.1	0.004				
Cc1c(C(=O)Nc2ccc(F)c([C@@]3(C)N=C(N)[C@]4(C)CC[C@H]3S4(=O)=O)c2)nc2ccc(Cl)cn12 [Example 28, N-(3-((1R,2R,5S)-4-Amino-2,5-dimethyl-8,8-dioxido-8-thia-3-azabicyclo[3.2.1]oct-3-en-2-yl)-4-fluorophenyl)-6-chloro-3-methylimidazo[1,2-a]pyridine-2-carboxamide]				0.07	> 400	0.01	> 400
Cc1cc(Cl)cnc1C(=O)Nc1ccc(F)c([C@@]2(CF)N=C(N)[C@]3(C)CC[C@H]2S3(=O)=O)c1 [Example 72, N-(3-((1R,2S,5S)-4-amino-2-(fluoromethyl)-5-methyl-8,8-dioxido-8-thia-3-azabicyclo[3.2.1]oct-3-en-2-yl)-4-fluorophenyl)-5-chloro-3-methyl-2-pyridinecarboxamide]	0.024	> 400	0.111				
COc1cnc(C(=O)Nc2ccc(F)c([C@@]3(C)N=C(N)[C@@]4(C)CC[C@@H]3S4(=O)=O)c2)cn1 [Example 37, N-(3-((1S,2R,5R)-4-amino-2,5-dimethyl-8,8-dioxido-8-thia-3-azabicyclo[3.2.1]oct-3-en-2-yl)-4-fluorophenyl)-5-methoxy-2-pyrazinecarboxamide]				0.004	1170	0.001	
CC#CCOc1ccc(C(=O)Nc2ccc(F)c([C@@]3(C)N=C(N)[C@@]4(C)CC[C@@H]3S4(=O)=O)c2)c(F)c1 [Example 138, N-(3-((1S,2R,5R)-4-amino-2,5-dimethyl-8,8-dioxido-8-thia-3-azabicyclo[3.2.1]oct-3-en-2-yl)-4-fluorophenyl)-4-(2-butyn-1-yloxy)-2-fluorobenzamide]	0.061	> 400	0.122				
Cc1cc(Cl)cnc1C(=O)Nc1ccc(F)c([C@]2(C)N=C(N)[C@]3(C)CC[C@H]2S3(=O)=O)c1 [Example 34, N-(3-((1R,2S,5S)-4-amino-2,5-dimethyl-8,8-dioxido-8-thia-3-azabicyclo[3.2.1]oct-3-en-2-yl)-4-fluorophenyl)-5-chloro-3-methyl-2-pyridinecarboxamide]				4.54	4310	2.03	
Cc1cc(OC(F)F)cnc1C(=O)Nc1ccc(F)c([C@@]2(C)N=C(N)[C@@]3(C)CC[C@@H]2S3(=O)=O)c1 [Example 23, N-(3-((1S,2R,5R)-4-Amino-2,5-dimethyl-8,8-dioxido-8-thia-3-azabicyclo[3.2.1]oct-3-en-2-yl)-4-fluorophenyl)-5-(difluoromethoxy)-3-methylpicolinamide]				0.002	117	0.001	
Cc1cc(Cl)cnc1C(=O)Nc1ccc(F)c([C@@]2(C)N=C(N)[C@]3(C)CC[C@H]2S3(=O)=O)c1 [Example 26, N-(3-((1R,2R,5S)-4-Amino-2,5-dimethyl-8,8-dioxido-8-thia-3-azabicyclo[3.2.1]oct-3-en-2-yl)-4-fluorophenyl)-5-chloro-3-methylpicolinamide]				0.008	577	0.017	
C[C@]12CC[C@H]([C@@](C)(c3cc(NC(=O)c4c(F)cc(Br)cc4F)ccc3F)N=C1N)S2(=O)=O [Example 126, N-(3-((1R,2R,5S)-4-amino-2,5-dimethyl-8,8-dioxido-8-thia-3-azabicyclo[3.2.1]oct-3-en-2-yl)-4-fluorophenyl)-4-bromo-2,6-difluorobenzamide]	0.315	2200	0.073				
CC#CCOc1cnc(C(=O)Nc2ccc(F)c([C@@]3(C)N=C(N)[C@@]4(CF)CC[C@@H]3S4(=O)=O)c2)cn1 [Example 94, N-(3-((1S,2R,5R)-4-amino-5-(fluoromethyl)-2-methyl-8,8-dioxido-8-thia-3-azabicyclo[3.2.1]oct-3-en-2-yl)-4-fluorophenyl)-5-(2-butyn-1-yloxy)-2-pyrazinecarboxamide]	0.0005	257	0.0002				
Cc1cc(C(F)(F)F)cnc1C(=O)Nc1ccc(F)c([C@@]2(C)N=C(N)[C@]3(C)CC[C@@]2(C)S3(=O)=O)c1 [Example 49, N-(3-((1R,2R,5S)-4-amino-1,2,5-trimethyl-8,8-dioxido-8-thia-3-azabicyclo[3.2.1]oct-3-en-2-yl)-4-fluorophenyl)-3-methyl-5-(trifluoromethyl)-2-pyridinecarboxamide]	0.011	66.6	0.004				
Cc1cc(Cl)cnc1C(=O)Nc1ccc(F)c([C@@]2(C)N=C(N)[C@H]3CCC[C@@H]2S3(=O)=O)c1 [Example 20, N-(3-((1S,2R,5R)-4-Amino-2-methyl-9,9-dioxido-9-thia-3-azabicyclo[3.3.1]non-3-en-2-yl)-4-fluorophenyl)-5-chloro-3-methylpicolinamide]				0.003	717	0.006	
COc1cnc2c(Nc3ccc(F)c([C@@]4(C)N=C(N)[C@@H]5CCC[C@H]4S5(=O)=O)c3)nccc2n1 (stereo in doubt) [Example 19]				0.323	1210	0.179	
C[C@]12CC[C@](C)(C(N)=N[C@]1(C)c1cc(Nc3ncc(F)c4cc(Cl)cnc34)ccc1F)S2(=O)=O [Example 50, N-(3-((1S,2R,5R)-4-amino-1,2,5-trimethyl-8,8-dioxido-8-thia-3-azabicyclo[3.2.1]oct-3-en-2-yl)-4-fluorophenyl)-3-chloro-5-fluoro-1,7-naphthyridin-8-amine]	0.004	12	0.28				
